Values of other authors, collected in patent publication US20040248933A1, “Use of 4-phenyl-substituted tetrahydroisoquinolines in the treatment of pain, migraine headaches and urinary incontinence” (priority 2002, published 2004).

Tested on: nocturnal enuresis patients
Settings: patients with nocturnal enuresis following treatment

CN(C)CCCN1c2ccccc2CCc2ccccc21 [imipramine, Imipramine]
Enuresis cured, share of patients: over 50% | Improvements seen, further share of patients (in addition to those cured): 15-20%
